Key:
A431 = experiment: Cell-counting assay, 72-h drug exposure; assay type: cell-based; conditions: Homo sapiens, A-431, read-out: Cell Growth Inhibitory Activity A431 IC50 72 h
Text: (§1) For the cytotoxic activity studies and determination of GI50 concentrations in three different tumor cell lines, the cell culture conditions are described in Section 3.5. For the studies on the effect on % viable cells, cell cycle, cellular proliferation, and apoptosis, culture conditions are described in Section 3.6.1. For the remaining studies, the epithelial carcinoma cell line A431 and the non-small cell lung carcinoma cell line NCI-H460 were routinely grown in RPMI 1640 (Lonza, Vierviers, Belgium), supplemented with 10% (v/v) heat-inactivated fetal bovine serum (FBS, GIBCO, Invitrogen, Paisley, UK). The human peritoneal mesothelioma cell line STO was kindly provided by Dr. N. Zaffaroni (IRCCS Istituto Nazionale Tumori, Milan, Italy) and grown in 50/50 DMEM-Ham’s F12 medium (Lonza, Vierviers, Belgium), supplemented with 10% (v/v) heat-inactivated foetal bovine serum and 2 mM L-glutamine (L-Gln). All cell lines were maintained at 37 °C in a 5%/95% CO2/air atmosphere. All the compounds tested were freshly prepared by dissolving powder in dimethylsulfoxide (DMSO) (BDH Prolabo, Milan, Italy) and following dilution in culture medium. Cells were incubated with drugs for 48 h or 72 h (unless otherwise stated) at 37 °C in culture medium supplemented with 10% (v/v) heat-inactivated FBS; drug concentrations used for each assay and duration of treatments are reported in Legends to Figures.
(§2) Cellular sensitivity to drugs was evaluated by a cell-counting assay after 72-h drug exposure. Cells in the logarithmic phase of growth were seeded in duplicate into 6-well plates. Twenty-four hours after seeding, the drug was added to the medium. Cells were harvested 72 h after drug exposure and counted with a cell counter.

STO = experiment: Cell-counting assay, 72-h drug exposure; assay type: cell-based; conditions: Homo sapiens, read-out: Cell Growth Inhibitory Activity STO IC50 72 h
Text: as §1, §2

AGS = experiment: Sulforhodamine B (SRB) cell growth inhibition assay; assay type: cell-based; conditions: Homo sapiens, 48 h treatment
Protocol: (§3) The following human tumor cell lines were used and maintained in RPMI-1640 medium with UltraGlutamine I and 25 mM Hepes (Lonza, Basel, Switzerland), supplemented with 5% FBS (Biowest): NCI-H460 (non-small cell lung adenocarcinoma), AGS (gastric adenocarcinoma) and MCF-7 (breast adenocarcinoma). The HFF-1 cell line (human foreskin fibroblasts) was cultured in DMEM High Glucose with L-Glutamine supplemented with 15% FBS. All cell lines were routinely maintained at 37 °C in a humidified incubator with 5% CO2. Cell number and viability were determined with the trypan blue exclusion assay. All the experiments were performed with exponentially growing cells presenting more than 90% cell viability.
(§4) The growth inhibitory effect of the compounds was assessed using the Sulforhodamine B (SRB) assay as previously described. Briefly, cells were plated into 96-well plates (5000 cells/well for MCF-7 and NCI-H460 cells and 7500 cells/well for AGS cells) and incubated for 24 h to adhere. Serial dilutions of the different compounds (ranging from 0 to 150 μM or from 0 to 50 μM) were then added to the cells. Cells were further incubated for 48 h. Following this period (or at the time the compound is added, T0), plates were fixed with 10% ice-cold trichloroacetic acid. Following staining with 0.4% SRB, plates were washed with 1% acetic acid and the bound dye solubilized with 10 mM Tris-Base. […] For the HFF-1 cell line, cells (15,000 cells/well) were plated into 96-well plates, allowed to adhere for 24 h and treated with the GI50 concentration of each compound for seven days. After this period, the SRB assay was carried out as described above. The effect of the maximum concentration of vehicle (solvent) of the compounds (H2O: 0.31% for compound 8 and 0.19% for compound 13) was also analyzed in each assay.

MCF7 = experiment: as above; assay type: cell-based; conditions: Homo sapiens, 48 h treatment
Protocol: as §3, §4

NCI-H460 [1] = experiment: as above; assay type: cell-based; conditions: Homo sapiens, 48 h treatment
Protocol: as §3, §4

[2] = Viable cell number, trypan blue exclusion assay; assay type: cell-based; conditions: human, NCI-H460 cells, read-out: Number of viable cells (in relation to Blank cells)
Protocol: NCI-H460 cells were plated in 6-well plates (1 × 10^5 cells/well) in RPMI-1640 medium with UltraGlutamine I and 25 mM Hepes (Lonza) supplemented with 10% FBS (PAA) at 37 °C in a humidified incubator with 5% CO2 for 24 h. […] These concentrations corresponded respectively to 5.2 μM and 7.8 μM for compound 5 and to 3.2 μM and 4.8 μM for compound 8. Cells were also incubated with medium only (Blank) or with the vehicle (solvent, H2O), corresponding to the highest concentration used when testing the compounds. Following treatment with the compounds, cells were further processed as follows.
Cell number and % viable cells was determined with the Trypan blue exclusion assay.

NCI-H460 [3] = experiment: Cellular proliferation, BrdU incorporation assay; assay type: cell-based, human; conditions: 48 h
Protocol: NCI-H460 cells were plated in 6-well plates (1 × 10^5 cells/well) in RPMI-1640 medium with UltraGlutamine I and 25 mM Hepes (Lonza) supplemented with 10% FBS (PAA) at 37 °C in a humidified incubator with 5% CO2 for 24 h. […] These concentrations corresponded respectively to 5.2 μM and 7.8 μM for compound 5 and to 3.2 μM and 4.8 μM for compound 8. Cells were also incubated with medium only (Blank) or with the vehicle (solvent, H2O), corresponding to the highest concentration used when testing the compounds. Following treatment with the compounds, cells were further processed as follows. Following 47 h treatment, cells were further incubated with 10 μM bromodeoxyuridine (BrdU; Sigma) for 1 h. Cells were then trypsinized and fixed in 4% paraformaldehyde (in PBS) for 30 min. Cytopsins were prepared and a 20 min denaturation step was carried out by incubating slides in 2 M HCl. Following incubation with mouse anti-BrdU primary antibody (1/10, Dako) for 1 h at room temperature (RT), cells were further incubated with anti-mouse-Ig-FITC (1/100, Dako) for 30 min, at RT [21]. Slides were then mounted with Vectashield mounting medium with DAPI (Vector Laboratories). The percentage of BrdU incorporating cells was determined by counting a minimum of 500 cells per slide (except for one experiment in which due to technical difficulties less cells were counted when testing the compound 8) using a fluorescence microscope (DM2000; Leica, Wetzlar, Germany ).

[4] = system: HSP90 client proteins in A431 cells; experiment: HSP90 client protein levels by Western blot; assay type: cell-based, human; conditions: 24 h
Text: as §1
(§5) Total cell lysates were prepared as described previously. Primary antibodies used in this study are: anti-Raf-1 and anti-CDK4 (Santa Cruz Biotechnology Inc., Santa Cruz, CA, USA), anti-Survivin (Abcam, Cambridge, UK), anti-Akt (Transduction Laboratories, Lexington, KY, USA), and anti-Actin Sigma Chemical Co., St. Louis, MO, USA).

[5] = system: HSP90 client proteins in STO cells; experiment: HSP90 client protein levels by Western blot; assay type: cell-based, human; conditions: 24 h
Text: as §1, §5

In the case of `O=c1c2ccccc2oc2c[n+](Cc3ccccc3)ccc12.[Br-]` [Compound 5, 2-Benzyl-10-oxo-10H-9-oxa-2-azonia-anthracene bromide], the IC50 (A431) is reported as 1.36 ± 0.05 µM, the IC50 (STO) is reported as 2.7 ± 0.8 µM and the GI50 (AGS) is reported as 6.9 ± 1.2 µM. For the same compound, the GI50 (MCF7) was 5.4 ± 0.6 µM, the GI50 (NCI-H460 [1]) was 5.2 ± 1.2 µM and the viability at 48 h, 5.2 µM ([2]; 5.2 μM (GI50)) was 71%. The viability at 48 h, 7.8 µM ([2]; 7.8 μM (1.5× GI50)) was 49%, the “Percentage of BrdU-incorporating cells” value (NCI-H460 [3]; 1.5× GI50 (7.8 μM), untreated cells 32%) was 22% and the “Percentage of BrdU-incorporating cells” value (NCI-H460 [3]; GI50 (5.2 μM), untreated cells 32%) was 25%. The CDK4 protein level ([4]; 5.4 μM) was “almost complete downregulation”, the Survivin protein level ([4]; 5.4 μM) was “partial downregulation” and the CDK4 protein level ([5]; 2.7 μM) was “almost complete downregulation”. For the same compound, the Survivin protein level ([5]; 2.7 μM) was “partial downregulation”.

`O=c1c2ccccc2sc2c[n+](Cc3ccccc3)ccc12.[Br-]` [Compound 8, 2-Benzyl-5-oxo-5H-thiochromeno[2,3-c]pyridin-2-ium bromide] showed an IC50 (A431) of 0.26 ± 0.4 µM, an IC50 (STO) of 0.26 ± 0.08 µM and a GI50 (AGS) of 3.1 ± 0.3 µM. For the same compound, the GI50 (MCF7) was 3.2 ± 0.1 µM, the GI50 (NCI-H460 [1]) was 3.2 ± 0.1 µM and the viability at 48 h, 3.2 µM ([2]; 3.2 μM (GI50)) was 57%. For the same compound, the viability at 48 h, 4.8 µM ([2]; 4.8 μM (1.5× GI50)) was 29%, the “Percentage of BrdU-incorporating cells” value (NCI-H460 [3]; 1.5× GI50 (4.8 μM), untreated cells 31%) was 21% and the “Percentage of BrdU-incorporating cells” value (NCI-H460 [3]; GI50 (3.2 μM), untreated cells 31%) was 26%. The Akt protein level ([4]; 2.6 μM) was “partial downregulation”, the EGFR protein level ([4]; 2.6 μM) was “partial downregulation” and the RAF protein level ([4]; 2.6 μM) was “strong downregulation”. The Survivin protein level ([4]; 2.6 μM, compared with STO cells) was “less marked” and the Survivin protein level ([5]; 2.6 μM) was “caused degradation”.
